Laboratory results from US20090306150A1, “CARBOXYLIC ACID SALTS OF 2-AMINO-3-CARBETHOXYAMINO-6-(4-FLUORO-BENZYLAMINO)-PYRIDINE” (AWD. PHARMA GMBH & CO. KG, priority 2008, published 2009).

Key:
Format in all cases: physicochemical
[1] = Determining the bulk density of flupirtine salts; details: volume per 100.0 g of sample material, about 4 g in 10 ml measuring cylinder, not compacted
Description: The bulk density was determined as follows: Without increasing its density, sample material (about 4 grams) was introduced into a 10 ml measuring cylinder (±0.2 ml). The volume and the exact weight of the introduced sample material were determined. The bulk density was calculated as volume per 100.0 g of sample material.

[2] = Stability towards oxidation and discoloration when exposed to air; details: storage period of 30 days at room temperature, in contrast to maleate and gluconate
Description: Discoloration can take takes place after prolonged storage or when exposed to air. Discoloration is regarded as leading to an active pharmaceutical ingredient (API) of low pharmaceutical quality and can be avoided by using a protective atmosphere in the production process and using expensive packaging materials for the finished drug forms. The discoloration effect is known for flupirtine hydrochloride, flupiritine gluconate and both polymorphs of flupirtine maleate.

[3] = Crystal shape of flupirtine salts (light microscope photomicrographs)
Description: As referred to herein, the “aspect ratio” denotes the ratio of the second largest dimension of a crystal particle (i.e. its width) to the largest dimension of the crystal particle (i.e. its length). The aspect ratio may be determined from a representative number of crystals by visual observation under a light microscope. The photomicrographs were obtained by gently exerting pressure on the sample material with a mortar and pistil, transferring the sample material to a microscope slide and covering it with immersion oil, followed by observation and image recording on an Optech Biostar microscope equipped with a polarisation filter. The magnification was 200, i.e. at a width of the photomicrograph of 14 cm, 1 cm of said photograph corresponds to about 0.06 mm.

[4] = Storage stability of flupirtine salts (HPLC); details: for Decrease of the area under the peak of the flupirtine signal: 0 to 14 days of storage at room temperature under normal air; for Flupirtine signal after 14 days (area under the peak in %): HPLC after 14 days of storage at room temperature under normal air, about 21% oxygen; for Flupirtine signal after 0 days (area under the peak in %): HPLC after preparation of the salts
Description: [table] HPLC was performed after preparation of the salts and repeated after 14 days of storage at room temperature under normal air containing about 21% oxygen.

[5] = Dissolution profiles of flupirtine acid addition salts in ethanol (compacted substance); details: 100 mg compacted, 1000 ml ethanol, 37° C., basket 50 UpM
Description: The dissolution in Ethanol was measured using compacted substance.
100 mg substance was compacted using a hydraulic press. Diameter of cake: 8.9 mm; pressure 20 kp/cm^2 for 15 sec. Liberation parameter:
Basket, 50 UpM, 1000 ml medium 37° C. Apparatus: DT6R Dissolution Tester (ERWEKA).
At given time points 5.0 ml solution were taken and measured vs. reference at 244 nm at a spectral photometer. The solution was refilled with 5 ml solvent. The amount of liberated substance at given time points was calculated using a response factor (absorption/mg substance). Measuring error: 10%.

[6] = as above; details: after 10 min stirring in ethanol

| SMILES | Bulk density (ml/100 g substance) [1] [ml/100 g substance] | Stability towards oxidation and towards discoloration [2] | Crystal shape [3] | Decrease of the area under the peak of the flupirtine signal [4] [%] | Flupirtine signal after 14 days (area under the peak in %) [4] [%] | Flupirtine signal after 0 days (area under the peak in %) [4] [%] | Amount of substance dissolved ([5]; 5 min) [mg] | Amount of substance dissolved ([5]; 10 min) [mg] | Amount of substance dissolved ([5]; 15 min) [mg] | Amount of substance dissolved ([5]; 20 min) [mg] | Amount of substance dissolved ([5]; 25 min) [mg] | Amount of substance dissolved ([5]; 30 min) [mg] | Amount of substance dissolved ([5]; 60.25 min) [mg] | Dissolution in ethanol (in words) [6] |
| --- | --- | --- | --- | --- | --- | --- | --- | --- | --- | --- | --- | --- | --- | --- |
| CC(=O)O.CCOC(=O)Nc1ccc(NCc2ccc(F)cc2)nc1N [Flupirtine acetate, 2-amino-3-carbethoxyamino-6-(4-fluoro-benzylamino)-pyridine acetate] | 330 | substantially improved stability | Hexagons and polygonal plates | 0.9 | 98.64 | 99.54 | 50.3 | 108.3 | 103.0 | 95.8 | 96.2 | 108.3 | 99.7 | – |
| CCOC(=O)Nc1ccc(NCc2ccc(F)cc2)nc1N.O=C(O)/C=C\C(=O)O [Flupirtine maleate A, Flupirtine Maleate Form A, reference compound] | 686 | – | Fine needles | 3.11 | 96.18 | 99.27 | 2.1 | 4.1 | 6.5 | 9.5 | 11.7 | 14.3 | 24.2 | – |
| CCOC(=O)Nc1ccc(NCc2ccc(F)cc2)nc1N.O=C(O)/C=C\C(=O)O [Flupirtine maleate B, Flupirtine Maleate Form B, reference compound] | 1634 | – | Very fine needles | 3.22 | 95.92 | 99.12 | 4.2 | 6.3 | 12.1 | 16.5 | 21.3 | 27.4 | 69.5 | – |
| CCOC(=O)Nc1ccc(NCc2ccc(F)cc2)nc1N [Flupirtine propionate, 2-amino-3-carbethoxyamino-6-(4-fluoro-benzylamino)-pyridine propionate] | 306 | substantially improved stability | Hexagons and polygonal plates | – | – | – | 110.0 | 109.4 | 110.3 | 107.4 | 109.6 | 110.9 | 112.2 | completely dissolved |
| CCOC(=O)Nc1ccc(NCc2ccc(F)cc2)nc1N.O=C(O)C(F)(F)F [Flupirtine triflutate, Flupirtine Triflutate] | – | – | – | – | – | – | 98.5 | 115.1 | 108.0 | 107.7 | – | – | – | completely dissolved |
